IC50 data for 9 compounds are collected here from patent publication US20230192661A1, “1, 4, 5, 6-TETRAHYDROPYRIMIDINE-2-AMINE DERIVATIVE” (UBE Corporation, priority 2020, published 2023).

Molecules are shown by their SMILES.

The subject of assay [1] is Human hepatic stellate cells. Nature of the assay: Active human hepatic stellate cell dedifferentiation test (decrease in ACTA2 mRNA expression). The format is cell-based. Particulars: 3 days differentiation then 2 days with compound, read-out: IC50 (rate of decrease in ACTA2 mRNA expression). Here is the method: Human hepatic stellate cells (manufactured by ScienCell Research Laboratories, Inc., 5300) were suspended in DMEM containing 10% FBS and […] penicillin/streptomycin/amphotericin B to prepare a cell suspension of 0.5×10^5 cells/mL, which was regarded as cells at the start of differentiation. The cells at the start of differentiation were dispensed at 1 mL/well to a 12-well plate and cultured, for differentiation, for 3 days in a 5% CO2 incubator (37° C.).
The culture solution in each well was removed, and DMEM containing 10% FBS and 1% penicillin/streptomycin/amphotericin B supplemented with a test compound dissolved in DMSO (final DMSO concentration: 0.1%) was added at 1 mL/well. The resultant was further cultured for 2 days in a 5% CO2 incubator (37° C.). In Test Example 4, the same reagents as in Test Example 1 were used unless otherwise specified.
RNA in the cultured cells was extracted using NucleoSpin® RNA (manufactured by Takara Bio Inc., U0955C), and cDNA was further synthesized from the extracted RNA using Prime Script™ RT reagent Kit with gDNA Eraser (manufactured by Takara Bio Inc., RR047A). Real time PCR was performed using the synthesized cDNA, various primers and TB Green® Premix Ex Taq™ II (manufactured by Takara Bio Inc., RR820A) and using PCR Thermal Cycler Dice Real Time (manufactured by Takara Bio Inc., System Code TP910, Model Code TP900). The primers used were actin alpha 2, smooth muscle (ACTA2) primer (manufactured by Takara Bio Inc., HA136273) and glyceraldehyde-3-phosphate dehydrogenase (GAPDH) primer (manufactured by Takara Bio Inc., HA067812).
The amplification curve of PCR was analyzed by the comparative Ct method. The expression level of ACTA2 mRNA was corrected with the expression level of GAPDH mRNA. An ACTA2 mRNA expression level when DMSO was added instead of the test compound was defined as 100%, and an ACTA2 mRNA expression level in the cells at the start of differentiation was defined as 0%. The rate of decrease in ACTA2 mRNA expression by the test compound was calculated according to the following expression.
Rate of decrease in ACTA2 mRNA expression (%)=[1−{(ACTA2 mRNA expression level in the case of adding the test compound)−(ACTA2 mRNA expression level in the cells at the start of differentiation)}/{(ACTA2 mRNA expression level in the case of adding DMSO)−(ACTA2 mRNA expression level in the cells at the start of differentiation)}]×100
An IC50 value was calculated from the rate of decrease in ACTA2 mRNA expression by the test compound. A: IC50<10 nM, B: 10 nM≤IC50<50 nM, C: 50 nM≤IC50<100 nM, or D: IC50≥100 nM.

The target of another assay is T1, αvβ6 (Homo sapiens, UniProt P06756+P18564).
T1 construct: endogenous in cells; host or cells: HT-29 cells
Briefly: αvβ6 cell adhesion inhibition test (HT-29 cells on recombinant human LAP protein). The assay is classed as cell-based. To be noted: recombinant human LAP coating, 200 μM MnCl2, 1 hour, read-out: IC50 (rate of inhibition of cell adhesion, αvβ6). Here is the method:
Test Example 2 was performed by partially modifying the method of Henderson et al. (Nat Med., 19 (12), 1617-24, 2013). In Test Example 2, the same reagents as in Test Example 1 were used unless otherwise specified.
Recombinant human LAP protein (manufactured by R&D Systems, Inc., 246-LP-025) was prepared at […] with PBS, dispensed at 100 μL/well to a 96-well plate, and left standing overnight. The plate was washed with HBSS, then subjected to blocking treatment with DMEM containing 1% BSA, and used as a coated plate in the adhesion test.
HT-29 cells cultured in McCoy's 5A medium (manufactured by Thermo Fisher Scientific, Inc., 16600) containing 10% FBS and 1% penicillin/streptomycin/amphotericin B were recovered and suspended in DMEM containing 0.1% BSA and 200 μM MnCl2 to prepare a cell suspension. A test compound was added thereto.
The cell suspension of 5×10^5 cells/mL containing the test compound was added at 100 μL/well to the coated plate and left standing for 1 hour in a 5% CO2 incubator (37° C.). One hour later, the supernatant was removed, and the plate was washed with HBSS containing 200 μM MnCl2. The cells that adhered to each well in the plate were stained with crystal violet, and the cells were lysed, followed by absorbance measurement. Inhibition without substrate coating was defined as 100% inhibition, and inhibition when DMSO was added instead of the test compound was defined as 0% inhibition. The rate of inhibition of cell adhesion by the test compound was calculated according to the following expression.
Rate of inhibition of cell adhesion (%)=[1−{(Absorbance in the case of adding the test compound)−(Absorbance without substrate coating)}/{(Absorbance in the case of adding DMS)−(Absorbance without substrate coating)}]×100
An IC50 value was calculated from the rate of inhibition of cell adhesion by the test compound. A: IC50<3 nM, B: 3 nM≤IC50<10 nM, C: 10 nM≤IC50<30 nM, D: 30 nM≤IC50<100 nM, or E: IC50≥100 nM.

T1 sequence (P06756 31-889 limits assumed): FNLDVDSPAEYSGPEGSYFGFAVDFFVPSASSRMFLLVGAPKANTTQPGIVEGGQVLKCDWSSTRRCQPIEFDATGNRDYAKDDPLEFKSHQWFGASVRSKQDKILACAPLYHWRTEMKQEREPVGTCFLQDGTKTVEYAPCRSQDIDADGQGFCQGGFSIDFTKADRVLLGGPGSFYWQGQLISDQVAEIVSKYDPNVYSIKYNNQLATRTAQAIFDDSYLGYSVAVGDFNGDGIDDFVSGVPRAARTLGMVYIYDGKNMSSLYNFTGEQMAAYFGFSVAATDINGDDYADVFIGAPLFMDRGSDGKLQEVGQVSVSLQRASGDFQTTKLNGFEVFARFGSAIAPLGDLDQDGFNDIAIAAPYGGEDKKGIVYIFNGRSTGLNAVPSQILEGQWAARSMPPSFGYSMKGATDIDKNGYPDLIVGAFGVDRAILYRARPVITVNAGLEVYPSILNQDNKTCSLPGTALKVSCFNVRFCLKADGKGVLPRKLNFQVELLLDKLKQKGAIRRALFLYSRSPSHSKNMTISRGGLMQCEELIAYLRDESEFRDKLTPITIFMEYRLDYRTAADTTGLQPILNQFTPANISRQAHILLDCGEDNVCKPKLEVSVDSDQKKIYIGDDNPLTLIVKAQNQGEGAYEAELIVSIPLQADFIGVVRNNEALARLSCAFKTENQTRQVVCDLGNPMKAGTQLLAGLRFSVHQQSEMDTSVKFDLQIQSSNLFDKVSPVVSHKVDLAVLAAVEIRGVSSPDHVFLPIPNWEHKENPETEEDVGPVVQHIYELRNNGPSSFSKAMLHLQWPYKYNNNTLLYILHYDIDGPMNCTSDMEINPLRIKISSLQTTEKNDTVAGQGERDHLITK
T1 sequence (P06756 891-1048 limits assumed): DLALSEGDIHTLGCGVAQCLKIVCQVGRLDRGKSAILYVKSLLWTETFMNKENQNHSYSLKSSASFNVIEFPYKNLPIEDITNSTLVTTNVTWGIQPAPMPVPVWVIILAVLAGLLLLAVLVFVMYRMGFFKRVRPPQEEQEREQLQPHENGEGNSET
T1 sequence (P18564 22-788): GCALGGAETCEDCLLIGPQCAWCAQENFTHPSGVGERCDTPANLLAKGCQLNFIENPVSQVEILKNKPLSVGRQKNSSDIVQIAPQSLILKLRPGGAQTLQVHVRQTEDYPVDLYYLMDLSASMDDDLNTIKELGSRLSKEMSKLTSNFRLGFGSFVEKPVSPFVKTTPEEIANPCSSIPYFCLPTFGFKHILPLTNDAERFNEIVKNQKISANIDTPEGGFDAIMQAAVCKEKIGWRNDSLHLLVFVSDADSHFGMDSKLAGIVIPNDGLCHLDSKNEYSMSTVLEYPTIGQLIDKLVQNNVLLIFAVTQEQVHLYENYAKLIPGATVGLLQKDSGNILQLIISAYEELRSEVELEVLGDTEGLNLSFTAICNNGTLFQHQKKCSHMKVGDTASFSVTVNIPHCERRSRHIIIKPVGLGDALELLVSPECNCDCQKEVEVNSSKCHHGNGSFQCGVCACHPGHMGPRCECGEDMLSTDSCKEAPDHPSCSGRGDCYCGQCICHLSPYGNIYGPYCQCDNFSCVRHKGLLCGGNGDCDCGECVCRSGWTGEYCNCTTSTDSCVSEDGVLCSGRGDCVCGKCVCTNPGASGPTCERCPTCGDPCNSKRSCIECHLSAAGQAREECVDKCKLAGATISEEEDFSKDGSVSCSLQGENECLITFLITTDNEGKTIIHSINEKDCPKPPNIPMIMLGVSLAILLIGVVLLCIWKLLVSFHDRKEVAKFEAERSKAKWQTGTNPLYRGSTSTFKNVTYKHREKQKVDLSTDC

Take `O=C(O)C[C@H](NC(=O)CNC(=O)c1cc(NC2=NCC(F)CN2)c2cn[nH]c2c1)c1cc(F)cc(C(F)(F)F)c1` (stereo partly drawn) [Example 6-(b), (3S)-3-(2-(4-((5-fluoro-1,4,5,6-tetrahydropyrimidin-2-yl)amino)-1H-indazole-6-carboxamido)acetamido)-3-(3-fluoro-5-(trifluoromethyl)phenyl)propanoic acid]: the IC50 (in general, the concentration at which inhibition is half-maximal) lay within 10 to 50 nM in assay [1] and 3 to 10 nM on αvβ6.

On to `O=C(O)C[C@H](NC(=O)CNC(=O)c1cc(NC2=NCC(F)CN2)c2cn[nH]c2c1)c1cc(C(F)(F)F)cc(C(F)(F)F)c1` (stereo partly drawn) [Example 7-(b), (3S)-3-(3,5-bis(trifluoromethyl)phenyl)-3-(2-(4-((5-fluoro-1,4,5,6-tetrahydropyrimidin-2-yl)amino)-1H-indazole-6-carboxamido)acetamido)propanoic acid], for which the 50% inhibitory concentration (IC50) in assay [1] is less than 10 nM; on αvβ6, less than 3 nM.

Regarding `O=C(O)C[C@H](NC(=O)CNC(=O)c1cc(NC2=NCC(F)CN2)c2cn[nH]c2c1)c1cc(-n2cccn2)cc(C(F)(F)F)c1` (stereo partly drawn) [Example 8-(b), (3S)-3-(3-(1H-pyrazol-1-yl)-5-(trifluoromethyl)phenyl)-3-(2-(4-((5-fluoro-1,4,5,6-tetrahydropyrimidin-2-yl)amino)-1H-indazole-6-carboxamido)acetamido)propanoic acid], the figures for the IC50 (in assay [1]; at αvβ6) were 50 to 100 nM and less than 3 nM, respectively.

With `O=C(O)C[C@H](NC(=O)CNC(=O)c1cc(NC2=NCC(F)CN2)c2cn[nH]c2c1)c1cccc(C(F)(F)F)c1F` (stereo partly drawn) [Example 9-(b), (3S)-3-(2-(4-((5-fluoro-1,4,5,6-tetrahydropyrimidin-2-yl)amino)-1H-indazole-6-carboxamido)acetamido)-3-(2-fluoro-3-(trifluoromethyl)phenyl)propanoic acid], the IC50 in assay [1] is 10 to 50 nM; on αvβ6, less than 3 nM.

With `O=C(O)C[C@H](NC(=O)CNC(=O)c1cc(NC2=NCC(F)CN2)c2cn[nH]c2c1)c1cccc(C(F)(F)F)c1Cl` (stereo partly drawn) [Example 10-(b), (3S)-3-(2-chloro-3-(trifluoromethyl)phenyl)-3-(2-(4-((5-fluoro-1,4,5,6-tetrahydropyrimidin-2-yl)amino)-1H-indazole-6-carboxamido)acetamido)propanoic acid], the IC50 (in assay [1]; at αvβ6) was no less than 100 nM in each case.

Turning to `O=C(O)C[C@H](NC(=O)CNC(=O)c1cc(NC2=NCC(F)CN2)c2cn[nH]c2c1)c1cc(C(F)(F)F)ccc1F` (stereo partly drawn) [Example 11-(b), (3S)-3-(2-(4-((5-fluoro-1,4,5,6-tetrahydropyrimidin-2-yl)amino)-1H-indazole-6-carboxamido)acetamido)-3-(2-fluoro-5-(trifluoromethyl)phenyl)propanoic acid], the IC50 in assay [1] is less than 10 nM; at αvβ6 it was less than 3 nM.

In the case of `O=C(O)C[C@H](NC(=O)CNC(=O)c1cc(NC2=NCC(F)CN2)c2cn[nH]c2c1)c1cc(C(F)(F)F)ccc1Cl` (stereo partly drawn) [Example 12-(b), (3S)-3-(2-chloro-5-(trifluoromethyl)phenyl)-3-(2-(4-((5-fluoro-1,4,5,6-tetrahydropyrimidin-2-yl)amino)-1H-indazole-6-carboxamido)acetamido)propanoic acid], the IC50 in assay [1] was 10 to 50 nM; at αvβ6, 3 to 10 nM.

Turning to `O=C(O)C[C@H](NC(=O)CNC(=O)c1cc(NC2=NCC(F)CN2)c2cn[nH]c2c1)c1ccc(F)c(C(F)(F)F)c1` (stereo partly drawn) [Example 13-(b), (3S)-3-(2-(4-((5-fluoro-1,4,5,6-tetrahydropyrimidin-2-yl)amino)-1H-indazole-6-carboxamido)acetamido)-3-(4-fluoro-3-(trifluoromethyl)phenyl)propanoic acid], the IC50 in assay [1] is 10 to 50 nM; on αvβ6, less than 3 nM.

As to `Cc1ccc([C@H](CC(=O)O)NC(=O)CNC(=O)c2cc(NC3=NCC(F)CN3)c3cn[nH]c3c2)cc1C(F)(F)F` (stereo partly drawn) [Example 14-(b), (3S)-3-(2-(4-((5-fluoro-1,4,5,6-tetrahydropyrimidin-2-yl)amino)-1H-indazole-6-carboxamido)acetamido)-3-(4-methyl-3-(trifluoromethyl)phenyl)propanoic acid], the IC50 in assay [1] was less than 10 nM; at αvβ6, less than 3 nM.
